Data: article PMC6094432, “Design, Synthesis and Evaluation of Substituted Aryl-2-Nitrovinyl Derivatives as Small Molecules Proteasome Inhibitors” (Iranian Journal of Pharmaceutical Research : IJPR, 2018)
Like-named read-outs stand apart in the source and are kept apart here.

Tests used:
MCF-7 cells = experiment: Cell viability (MTT) assay, MCF-7; type: cell-based; conditions: Homo sapiens, read-out: Cell cytotoxicity assay IC50 MCF-7
Experimental: (§1) Human breast cancer (MCF-7), and human prostate cancer (PC-3) cells were cultured in their respective media supplemented with 10% fetal bovine serum (FBS). The cells were cultured at 1 × 10^4 cells per well, in a 96-well plate and incubated for 24-48 h to obtain cell attachments. Afterwards, the cells were treated with different concentrations of test compounds for 48 h and then incubated with 20 µL of 5 mg/mL 3-(4,5-dimethylthiazol-2-yl)-2,5-diphenyl tetrazolium bromide (MTT) solution for 4 h. After aspiration of the MTT solution, 100 µL of DMSO was added to each well to dissolve formazan crystals. The absorbance of each well was measured at the wavelength of 550 nm using an enzyme-linked immunosorbent assay reader. IC50 values were calculated from the curves generated by plotting the percentage of the viable cells versus the test concentration on a logarithmic scale using SigmaPlot 10.0 software.

[1] = target: T1, 20S proteasome ChT-L activity (Homo sapiens, UniProt P28074); experiment: Cell-based 20S proteasome ChT-L inhibition assay in PC-3 cells
T1 construct: This assay measures the ChT-L protease activity in cultured cells; endogenous in cells; host or cells: MCF-7 and PC-3 cells
Experimental: (§2) Cell-based proteasome inhibition assay
(§3) The effect of the derivatives on the 20S proteasome activity was determined using the 20S proteasome activity assay kit from Sigma (USA). This assay measures the ChT-L protease activity in cultured cells and is based on the detection of the fluorophore R110 after cleavage from the labeled substrate LLVY-R110. MCF-7 and PC-3 cells were pretreated with different concentrations of corresponding compounds and proteasome activities were determined according to the manufacturer′s protocol. Proteasome activity generates strongly green fluorescent R110, which was monitored at an excitation wavelength of 480 nm and emission of […] on a microplate fluorescence reader. All data were calculated by subtracting the blank control.

[2] = target: T1, 20S proteasome ChT-L activity; experiment: Cell-based 20S proteasome ChT-L inhibition assay in MCF-7 cells
Experimental: as §2, §3

PC-3 cells = experiment: Cell viability (MTT) assay, PC-3; type: cell-based; conditions: Homo sapiens, read-out: Cell cytotoxicity assay IC50 PC-3
Experimental: as §1

[3] = PC-3 cells, percent inhibition at 25 µM, ChT-L activity, LLVY-R110 substrate, read-out: 20S proteasome inhibition, Inhibition [%] PC-3
[4] = PC-3 cells, ChT-L activity, LLVY-R110 substrate
[5] = MCF7, MCF-7 cells, percent inhibition at 10 µM, ChT-L activity, LLVY-R110 substrate, read-out: 20S proteasome inhibition, Inhibition [%] MCF-7
[6] = MCF-7 cells, ChT-L activity, LLVY-R110 substrate
[7] = MCF7, MCF-7, MTT, 48 h treatment, mean ± SD of three independent experiments
[8] = PC-3, MTT, 48 h treatment, mean ± SD of three independent experiments

Row | melting point [°C] | inhibition at 25 µM [1, 3] [%] | IC50 [1, 4] [µM] | inhibition at 10 µM [2, 5] [%] | IC50 [2, 6] [µM] | inhibition at 25 µM ([1]; PC-3, read-out: 20S proteasome inhibition, Inhibition [%] PC-3) [%] | inhibition at 10 µM ([2]; MCF7, read-out: 20S proteasome inhibition, Inhibition [%] MCF-7) [%] | Structure (SMILES) | IC50 (MCF-7 cells; MCF7, 48 h) [µM] | IC50 (PC-3 cells; PC-3, 48 h) [µM] | IC50 (MCF-7 cells; [7]) [µM] | IC50 (PC-3 cells; [8]) [µM]
1 | 105 to 107 | 50.8 ± 2.7 | 30.1 ± 3.74 | 48.2 ± 2.8 | 9.92 ± 0.27 |  |  | Cc1ccc(C=C(Cc2ccccc2)[N+](=O)[O-])cc1 [Compound 4c, 3-(4-methylphenyl)-2-nitroallylbenzene] | 16.56 ± 0.12 | 62.7 ± 4.21 |  | 
2 |  | 40.3 ± 1.2 | 36.1 ± 4.1 | 43.9 ± 0.98 | 13.7 ± 4.64 |  |  | Cc1ccc(C=C(CC(C)C)[N+](=O)[O-])cc1 [Compound 6a, 1-methyl-4-(4-methyl-2-nitropent-1-enyl)benzene] | 24.08 ± 0.18 | 73.1 ± 3.63 |  | 
3 | 53 to 56 | 54.4 ± 3.3 | 42.8 ± 5.11 | 60.4 ± 4.1 | 3.57 ± 0.13 |  |  | COc1ccc(C=C(Cc2ccccc2)[N+](=O)[O-])cc1 [Compound 4d, 3-(4-methoxyphenyl)-2-nitroallylbenzene] | 4.72 ± 0.07 | 79.6 ± 4.6 |  | 
4 |  | 72.4 ± 2.2 | 21.7 ± 1.17 | 90.3 ± 5 | 1.7 ± 0.02 |  |  | O=[N+]([O-])C(=Cc1ccccc1)CO [Compound 2a, 2-Nitro-3-phenylprop-2-en-1-ol] | 2.4 ± 0.08 | 29.27 ± 0.12 |  | 
5 |  | 40.3 ± 1.9 | 22.02 ± 0.09 | 44.1 ± 2.8 | 10.3 ± 0.17 |  |  | O=[N+]([O-])C(=Cc1ccc(Cl)cc1)CO [Compound 2b, 2-Nitro-3-(4-chlorophenyl)prop-2-en-1-ol] | 17.34 ± 0.13 | 20.79 ± 0.01 |  | 
6 |  | 86.3 ± 5 | 17.8 ± 1.05 | 85 ± 6.1 | 0.71 ± 0.01 |  |  | COc1ccc(C=C(CO)[N+](=O)[O-])cc1 [Compound 2d, 2-Nitro-3-(4-methoxyphenyl)prop-2-en-1-ol] | 1.17 ± 0.04 | 32.3 ± 2.04 |  | 
7 |  |  |  |  |  | 74 ± 4.6 | 86.7 ± 5.1 | CC(C)C[C@H](NC(=O)[C@H](Cc1ccccc1)NC(=O)c1cnccn1)B(O)O [Bortezomib, bortezomib, reference compound] | 0.04 ± 0.01 | 0.26 ± 0.02 |  | 
8 | 52 to 54 | 87 ± 4.1 | 25.9 ± 2.37 | 93.4 ± 5.2 | 2.82 ± 0.06 |  |  | Cc1ccc(C=C(CO)[N+](=O)[O-])cc1 [Compound 2c, 2-Nitro-3-(4-tolyl)prop-2-en-1-ol] | 5.08 ± 0.05 | 46.6 ± 6.72 |  | 
9 | 110 to 113 |  | > 50 |  | > 50 |  |  | CN(C)c1ccc(C=C(Cc2ccccc2)[N+](=O)[O-])cc1 [Compound 4e, N, N-dimethyl-4-(2-nitro-3-phenylprop-1-enyl)benzenamine] | 20.85 ± 0.09 | 332 ± 12.3 |  | 
10 | 98 to 100 | 63.9 ± 4.4 | 40.22 ± 0.07 | 50.4 ± 3.9 | 11.1 ± 0.17 |  |  | O=[N+]([O-])C(=Cc1ccc(Cl)cc1)Cc1ccccc1 [Compound 4b, 3-(4-chlorophenyl)-2-nitroallylbenzene] | 15.9 ± 0.2 | 70.74 ± 0.08 |  | 
11 |  | 50.2 ± 3.5 | 20.5 ± 1.09 | 45.7 ± 3.6 | 3.82 ± 0.15 |  |  | COc1ccc(C=C(CC(C)C)[N+](=O)[O-])cc1 [Compound 6b, 1-methoxy-4-(4-methyl-2-nitropent-1-enyl)benzene] | 5.27 ± 0.03 | 60.07 ± 0.01 |  | 

Row | Structure (SMILES) | melting point [°C] | inhibition at 25 µM [1, 3] [%] | IC50 [1, 4] [µM] | inhibition at 10 µM [2, 5] [%] | IC50 [2, 6] [µM] | inhibition at 25 µM ([1]; PC-3, read-out: 20S proteasome inhibition, Inhibition [%] PC-3) [%] | inhibition at 10 µM ([2]; MCF7, read-out: 20S proteasome inhibition, Inhibition [%] MCF-7) [%] | IC50 (MCF-7 cells; MCF7, 48 h) [µM] | IC50 (PC-3 cells; PC-3, 48 h) [µM] | IC50 (MCF-7 cells; [7]) [µM] | IC50 (PC-3 cells; [8]) [µM]
12 | COc1ccc(C=C[N+](=O)[O-])cc1 [Compound 1d, 1-methoxy-4-(2-nitrovinyl) benzene] |  | 84.5 ± 3.9 | 29.4 ± 2.91 | 89.6 ± 4.4 | 1.21 ± 0.07 |  |  |  |  | 2.2 ± 0.06 | 60.3 ± 5.11
13 | O=[N+]([O-])C(=Cc1ccccc1)Cc1ccccc1 [Compound 4a, 3-(phenyl)-2-nitroallylbenzene] |  | 42.7 ± 3.6 | 39.6 ± 16.3 | 54.9 ± 4.3 | 7.56 ± 0.11 |  |  | 10.7 ± 0.16 | 48.8 ± 2.71 |  | 
14 | O=[N+]([O-])C=Cc1ccccc1 [Compound 1a, (2-nitrovinyl)benzene] |  | 78.6 ± 3.2 | 38 ± 3.24 | 85.2 ± 5.9 | 3.67 ± 0.27 |  |  |  |  | 5.23 ± 0.17 | 39.9 ± 0.97
15 | CN(C)c1ccc(C=C[N+](=O)[O-])cc1 [Compound 1e, N, N-dimethyl-4-(2-nitrovinyl)benzenamine] |  |  | > 50 |  | > 50 |  |  |  |  | 43.9 ± 1.27 | 188 ± 10.3
16 | Cc1ccc(C=C[N+](=O)[O-])cc1 [Compound 1c, 1-methyl-4-(2-nitrovinyl)benzene] |  | 80.1 ± 5.4 | 36 ± 2.14 | 88.9 ± 4.6 | 5.23 ± 0.15 |  |  |  |  | 9.63 ± 0.25 | 70.4 ± 4.33
17 | O=[N+]([O-])C=Cc1ccc(Cl)cc1 [Compound 1b, 1-chloro-4-(2-nitrovinyl)benzene] |  | 84.3 ± 2.7 | 48 ± 5.39 | 93.9 ± 2.4 | 5.63 ± 0.39 |  |  |  |  | 7.11 ± 0.22 | 78.4 ± 3.22
